# Where “and” joins values, the source holds several entries; their conditions need not be identical. Equal entries are not always repeated. Where two headings read alike, the source gives them in different places. Peptide text beside a SMILES is read from it.
# How the values were obtained:
# [1] = test system: isolated clot in the rabbit jugular vein (tPA mediated clot lysis); assay: Rabbit jugular vein thrombolysis model I: peptide added during clot formation, then tPA infusion; assay type: in vivo, rabbit (New Zealand White); conditions: tPA alone 0.125 mg/kg infused over 4 h; standard curve 1 conditions
# Procedure: Two independent studies were performed using the rabbit jugular vein thrombolysis model described in D. Collen et al., J. Clin. Invest. 71:368 (1983), with minor modifications. The enhancer peptide was administered during clot formation prior to tPA administration in one set of experiments with the rabbit jugular vein thrombolysis model. The enhancer peptide produced a five-fold increase in the clot lysis obtained from infusion of 0.125 mg tPA/kg, which corresponds to the lysis observed by a six-fold increase in tPA dose.
# Clot lysis standard curves were performed for varying doses of tPA from C127 mouse cells (Invitron). […] To compare the data, standard curves were established for each procedure. A linear dose dependency is observed with both sets of data. […] Increases in clot lysis were evaluated by two methods. In the first method, fold increases in % clot lysis were calculated as follows: [formula] […] Fold increase in tPA dose was determined as follows: [formula] […]
# An isolated clot was formed in the rabbit jugular vein using bovine thrombin (Calbiochem, San Diego, Calif.) and ^125 I fibrinogen (Amersham, Arlington Heights, Ill.). […] Blood samples were taken every hour from the femoral vein, and clot lysis was measured by comparison of residual radioactivity in the clot at the end of 4 1/2 hours. […]
# fibrinogen [2] = assay: Fibrinogen level in rabbit plasma by thrombin clotting time during clot lysis experiments; conditions: enhancer peptide dose 0 mg/kg (tPA only)
# Procedure: (§1) Fibrinogen concentration in dilute plasma is inversely proportional to the thrombin clotting of the plasma (S. Borgstrom, Acta Chir. Scand. 90:419 (1945); A. Clauss, Acta Haemat, 17:273 (1957); K. Jacobson, Scand. J. Clin. Lab. Med. 7:7 (1955). Plasma was diluted 1:10 and 200 μL of this solution added to 100 μL (10 units) of bovine thrombin. Clotting time was measured on a clinical fibrometer, and fibrinogen levels determined as mg/dL plasma.
# α-2 antiplasmin = assay: Antiplasmin assay (plasmin cleavage of S2251) in rabbit plasma during clot lysis experiments; assay type: in vivo
# Procedure: Antiplasmin levels were monitored by the antiplasmin assay (Helena Labs, Beaumont, Tex.). This assay measures inhibition of plasmin cleavage of a chromogenic substrate S2251 (H-D Valyl-Leucyl-L-Lysine-p-nitroanilide dihydrochloride) obtained from Helena Labs. A typical reaction mixture contains 215 μL of 50 mM Tris buffer pH 7.4, 110 mM NaCl, 5 μL rabbit plasma, 15 μL plasmin (1 unit), and 15 μL of substrate S2251 (3.5 mM stock) in a total reaction volume of 250 μL. The generation of p-nitroaniline product is monitored at […].
# [3] = test system: jugular vein clot (tPA mediated clot lysis); assay: Rabbit jugular vein thrombolysis model II: peptide coinfused with tPA; assay type: in vivo, rabbit (New Zealand White); conditions: tPA alone 0.125 mg/kg; standard curve 2 conditions (17% background lysis)
# Procedure: In a second experiment the enhancer peptide was administered with tPA. […] Clot lysis standard curves were performed for varying doses of tPA from […] mouse cells (Invitron). […] To compare the data, standard curves were established for each procedure. A linear dose dependency is observed with both sets of data. […] The chosen dose of tPA (0.125 mg/kg) for the peptide experiments gave 17% and 27% lysis, respectively, for the two sets of experiments. This dose was chosen as the baseline for the peptide study so that an increase in clot lysis would be observable. Increases in clot lysis were evaluated by two methods. In the first method, fold increases in % clot lysis were calculated as follows: [formula] In the second method, the equivalent dose of tPA necessary to obtain the clot lysis observed with tPA and peptide was extrapolated from the appropriate standard curve. Fold increase in tPA dose was determined as follows: [formula] A dose response study was performed with the peptides using a constant tPA dose (FIG. 5). Three doses are tested: 1.85 mg/kg, 0.185 mg/kg and 0.0185 mg/kg, which correspond to molar ratios of peptide to tPA of 385, 38.5, and 3.85, respectively with weight ratios of enhancer peptide to tPA of 15:1, 1.5:1, and 0.15:1 respectively. […]
# tPA antigen = tPA antigen ELISA in rabbit plasma during clot lysis experiments; assay type: in vivo; conditions: with tPA
# Procedure: Samples of rabbit plasma were assayed by a commercial ELISA assay from American Diagnostic Inc. (ADI), New York, N.Y. Several modifications are made to the ADI protocol, which include using 10 μL of untreated plasma sample to minimize background and spiking the standard curve with 10 μL rabbit plasma to equalize any salt effect that might result. The assay was standardized with mouse C127 cell tPA (Invitron, St. Louis, Mo.).
# The tPA antigen levels were monitored hourly to determine if the increase in clot lysis is due to an extended tPA half-life. […] Antigen levels of tPA decreased after infusion is stopped, indicating normal clearance of the exogenous tPA.
# fibrinogen [4] = conditions: rabbit, in vivo
# Procedure: as §1
Compound,clot lysis [1],Fibrinogen (% of baseline) (fibrinogen [2]),α-2 Antiplasmin (% of baseline) (α-2 antiplasmin; enhancer peptide dose 0 mg/kg (tPA only)),clot lysis [3],tPA Antigen 30 min. after Infusion (tPA antigen; enhancer peptide dose 0.0185 mg/kg),tPA Antigen 30 min. after Infusion (tPA antigen; enhancer peptide dose 0.185 mg/kg),Fibrinogen levels (fibrinogen [4]),Fibrinogen (% of baseline) (fibrinogen [4]; 0.0185 mg/kg),Fibrinogen (% of baseline) (fibrinogen [4]; 0.185 mg/kg),Fibrinogen (% of baseline) (fibrinogen [4]; 1.85 mg/kg),Fibrinogen (% of baseline) (fibrinogen [4]; 9.25 mg/kg),Fibrinogen (% of baseline) (fibrinogen [4]; 18.5 mg/kg),"α-2 antiplasmin levels (α-2 antiplasmin; all rabbit experiments, including those with increased clot lysis from enhancer peptide)","α-2 Antiplasmin (% of baseline) (α-2 antiplasmin; enhancer peptide dose 0.0185 mg/kg, with tPA)","α-2 Antiplasmin (% of baseline) (α-2 antiplasmin; enhancer peptide dose 0.185 mg/kg, with tPA)","α-2 Antiplasmin (% of baseline) (α-2 antiplasmin; enhancer peptide dose 1.85 mg/kg, with tPA)","α-2 Antiplasmin (% of baseline) (α-2 antiplasmin; enhancer peptide dose 9.25 mg/kg, with tPA)"
"tPA: tissue plasminogen activator from C127 mouse cells (Invitron Lot #76-001-31395), control tPA for this study",17% and 16 +/- 1%,100 % of baseline,94 +/- 2 % of baseline,27%,–,–,–,–,–,–,–,–,–,–,–,–,–
CC[C@H](C)[C@H](NC(=O)[C@H](Cc1ccccc1)NC(=O)[C@@H](NC(=O)[C@H](CC(C)C)NC(=O)[C@H](Cc1ccccc1)NC(=O)[C@@H]1CCCN1C(=O)[C@H](CCCNC(=N)N)NC(=O)[C@H](CC(N)=O)NC(=O)[C@H](C)NC(=O)[C@H](CCCCN)NC(=O)[C@H](Cc1ccccc1)NC(=O)[C@@H](NC(=O)[C@@H](NC(=O)[C@H](CCCNC(=N)N)NC(=O)[C@H](CC(N)=O)NC(=O)[C@@H]1CCCN1C(=O)[C@H](CC(N)=O)NC(=O)[C@H](CC(C)C)NC(=O)[C@H](CO)NC(=O)[C@H](CCCNC(=N)N)NC(=O)CNC(=O)[C@H](C)N)C(C)C)[C@@H](C)O)C(C)C)C(=O)O [enhancer peptide] (H-AGRSLNPNRVTFKANRPFLVFI-OH),–,–,–,–,0 mg/mL,0 mg/mL,did not change,100 % of baseline,100 +/- 1 % of baseline,100 +/- 1 % of baseline,91 % of baseline,91 +/- 13 % of baseline,did not change,87 +/- 7 % of baseline,96 +/- 1 % of baseline,86 +/- 8 % of baseline,92 +/- 2 % of baseline

# — US5591431A, “Enhancement of clot lysis” (G.D. Searle & Co., priority 1990, dated 1997)
